In patent US6699863B1, “Kinase inhibitors for the treatment of disease” (Allergan, Inc., priority 2002, dated 2004):
pIC50: −log10 of the molar value.

What was measured:
[1] = tested on: VEGF induced increases in intracellular calcium levels in HUVEC (human umbilical vein endothelial cells); experiment: VEGF Stimulated Ca++ Signal In vitro (FLIPR); type: cell-based; settings: VEGF stimulation 5 ng/mL, 30 min pre-incubation
Protocol: Automated FLIPR (Fluorometric Imaging Plate Reader) technology was used to screen for inhibitors of VEGF induced increases in intracellular calcium levels in fluorescent dye loaded endothelial cells. HUVEC (human umbilical vein endothelial cells) (Clonetics) were seeded in 96-well fibronectin coated black-walled plates overnight at 37° C./5%CO2. Cells were loaded with calcium indicator Fluo-4 for 45 minutes at 37° C. Cells were washed 4 times (Original Cell Wash, Labsystems) to remove extracellular dye. Test compounds were reconstituted in 100% DMSO and added to the cells to give a final DMSO concentration of 0.1%. For screening, cells were pre-incubated with test agents for 30 minutes, at a single concentration (10 μM) or at concentrations ranging from 0.01 to 10.0 μM followed by VEGF stimulation (5 ng/mL). Changes in fluorescence at 516 nm were measured simultaneously in all 96 wells using a cooled CCD camera. Data were generated by determining max-min fluorescence levels for unstimulated, stimulated, and drug treated samples. IC50 values for test compounds were calculated from % inhibition of VEGF stimulated responses in the absence of inhibitor.

[2] = biological target: T1, human VEGF receptor (VEGFR-2) (Homo sapiens, UniProt P35968); experiment: VEGFR2 Kinase Assay; type: biochemical; settings: 3.6 μM ATP, poly-Glu-Tyr (4:1)
T1 construct: The cytoplasmic domain of the human VEGF receptor (VEGFR-2) was expressed; His (histidine tag); made in house; host or cells: insect cells (engineered baculovirus)
T1 sequence (P35968 786-1356 limits assumed): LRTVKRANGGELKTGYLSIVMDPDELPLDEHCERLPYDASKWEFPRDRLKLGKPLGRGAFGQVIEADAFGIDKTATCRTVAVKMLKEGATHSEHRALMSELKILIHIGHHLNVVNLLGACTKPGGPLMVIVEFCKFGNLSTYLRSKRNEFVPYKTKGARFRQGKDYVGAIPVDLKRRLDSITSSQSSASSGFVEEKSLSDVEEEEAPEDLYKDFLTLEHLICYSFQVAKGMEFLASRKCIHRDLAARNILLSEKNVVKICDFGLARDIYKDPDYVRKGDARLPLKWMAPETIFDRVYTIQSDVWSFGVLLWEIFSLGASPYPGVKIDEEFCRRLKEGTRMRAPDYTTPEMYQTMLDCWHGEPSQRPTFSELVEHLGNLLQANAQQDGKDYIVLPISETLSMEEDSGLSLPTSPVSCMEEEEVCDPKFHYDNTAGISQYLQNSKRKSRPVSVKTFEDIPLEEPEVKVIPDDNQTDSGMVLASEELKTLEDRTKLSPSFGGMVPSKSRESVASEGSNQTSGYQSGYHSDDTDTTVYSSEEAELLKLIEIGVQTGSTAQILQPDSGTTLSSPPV
Protocol: The cytoplasmic domain of the human VEGF receptor (VEGFR-2) was expressed as a Hisfidine-tagged fusion protein following infection of insect cells using an engineered baculovirus. His-VEGFR-2 was purified to homogeneity, as determined by SDS-PAGE, using nickel resin chromatography. Kinase assays were performed in 96 well microtiter plates that were coated overnight with 30 μg of poly-Glu-Tyr (4:1) in 10 mM Phosphate Buffered Saline (PBS), pH 7.2-7.4. The plates were incubated with 1% BSA and then washed four times with PBS prior to starting the reaction. Reactions were carried out in 120 μL reaction volumes containing 3.6 μM ATP in kinase buffer (50 mM Hepes buffer pH 7.4, 20 mM MgCl2, 0.1 mM MnCl2 and 0.2 mM Na3VO4). Test compounds were reconstituted in 100% DMSO and added to the reaction to give a final DMSO concentration of 5%. Reactions were initiated by the addition 0.5 ng of purified protein. Following a ten minute incubation at 25° C., the reactions were washed four times with PBS containing 0.05% Tween-20. 100 μl of a monoclonal anti-phosphotyrosine antibody-peroxidase conjugate was diluted 1:10000 in PBS-Tween-20 and added to the wells for 30 minutes. Following four washes with PBS-Tween-20, 100 μl of O-phenylenediamine Dihydrochloride in Phosphate-citrate buffer, containing urea hydrogen peroxide, was added to the wells for 7 minutes as a colorimetric substrate for the peroxidase. The reaction was terminated by the addition of 100 μl of 2.5N H2SO4 to each well and read using a microplate ELISA reader set at 492 nm. IC50 values for compound inhibition were calculated directly from graphs of optical density (arbitrary units) versus compound concentration following subtraction of blank values.

[3] = tested on: VEGF-induced EBD extravasation; experiment: VEGF-induced Dermal Extravasation in Guinea Pig (Miles Assay); type: in vivo; settings: vehicle corn oil; for % Inhibition @ Dose (mg/Kg): 75 mg/Kg single oral dose
Protocol: Male Hartley guinea pigs (300-600 g) were anesthetized with isofluorane, sheared, and given a single dose of drug or the respective vehicle. The guinea pigs were dosed orally unless indicated otherwise in Table 3. Ten minutes prior to the end of drug treatment, guinea pigs were anesthetized with isofluorane, and 0.5% Evans blue dye (EBD) in PBS (13-15 mg/kg dose of EBD) was injected intravenously. After 5 minutes, triplicate intradermal injections of 100 ng rhVEGF165 in 100 μl PBS and of 100 μl PBS alone were administered on the flank. After 20 minutes, each animal was euthanized with Pentosol, and the skin containing the intradermal injection sites was removed for image analysis.
Using an analog video camera coupled to a PC, an image of each trans-illuminated skin sample was captured, and the integrated optical density of each injection site was measured using ImagePro 4. For each skin sample, the difference between the mean optical density of the VEGF sites and mean optical density of the PBS sites is the measure of VEGF-induced EBD extravasation in that animal. These measured values were averaged per study group to determine the mean VEGF-induced EBD extravasation for each experimental condition, and the group means were then compared to assess inhibition of VEGF-induced EBD extravasation in the drug-treated groups relative to the vehicle-treated controls.
(§1) To determine the dose required for 50% inhibition (ID50), the percent inhibition data was plotted as a function of oral dose, using the ‘best-fit’ analysis within MicroSoft Excel software. The ID50 value was verified visually by using the plotted data (horizontal line from 50% y value, at intersection with best-fit line drop vertical line to x axis (dose).

physchem = type: physicochemical; settings: buffer
Protocol: The chemical stability of Example 12 of the invention has been studied using buffers at pH 1, pH 3 and pH 7. Example 12 prepared in acetonitrile at 200 μg/mL and diluted to 20 μg/mL in buffers at pH 1, pH 3 and pH 7.

[4] = tested on: laser-induced choroidal neovascularization; experiment: Laser-induced Choroidal Neovascularization (CNV) in Rat (CNV Assay); type: in vivo; settings: vehicle corn oil
Protocol: CNV was induced and quantified in this model as previously described (Edelman and Castro. Exp. Eye Res. 2000; 71:523-533). On day 0, male Brown Norway rats (200-300 g) were anesthetized with 100 mg/kg Ketamine and 10 mg/kg Xylazine, and pupils were dilated with 1% Tropicamide. Using the blue-green setting of a Coherent Novus Argon Laser, 3 laser bums (90 mW for 0.1 s; 100 μm diameter) were given to each eye between the retinal vessels around the optic nerve head. Rats were dosed with test compounds in their indicated vehicles orally once daily.
On day 10, rats were sacrificed with 100% CO2, and blood vessels were labeled by vascular perfusion with 10 mg/ml FITC-dextran (MW 2×10^6). Using an epifluorescence microscope (20×) coupled to a spot digital camera and a PC, images were obtained from the flat mounts of the RPE-choroid-sclera from each eye, and the area occupied by hyperfluorescent neovessels within each laser lesion was measured using ImagePro 4 software.
as §1

Row | SMILES | pIC50 [2] | pIC50 [1] | % Inhibition @ Dose (mg/Kg) [3] | also measured
1 | O=C1Nc2ccccc2C1=CNc1ccc(N2CCOCC2)cc1 [Example 11, 3-[(4-morpholinophenylamino)-methylene]-1,3-dihydro-indol-2-one] | 6.59 | 6.53 | 40% @ 75 mg/Kg | –
2 | O=C1C(=CNc2ccc(N3CCOCC3)cc2)c2ccccc2N1CN1CCCCC1 [Example 12, 3-[(4-Morpholin-4-yl-phenylamino)-methylene]-1-piperidin-1-ylmethyl-1,3-dihydro-indol-2-one] | 6.32 | 6.36 | 88% @ 75 mg/Kg | half-life at 20 μg/mL (physchem; pH 1): ~38 h; half-life at 20 μg/mL (physchem; pH 3): ~20 h; half-life at 20 μg/mL (physchem; pH 7.4): < 0.5 h; ID50 ([3]; oral): 36 mg/kg; % Inhibition @ Dose (mg/Kg) ([4]; 80 mg/Kg (sid) oral once daily, day 10): 94% @ 80 mg/Kg (sid); ID50 ([4]; oral once daily): 36 mg/kg
3 | O=C1Nc2ccccc2C1=C1OCc2ccccc21 [Example 14, 3-(3H-isobenzofuran-1-ylidene)-1,3-dihydro-indol-2-one] | – | 6.96 | – | –

Further lines, with some results ahead:

Row | pIC50 [2] | SMILES | pIC50 [1] | % Inhibition @ Dose (mg/Kg) [3] | also measured
4 | 5.41 | O=C1C(=CNc2ccc(N3CCOCC3)cc2)c2ccccc2N1CN1CCOCC1 [Example 13, 1-Morpholin-4-ylmethyl-3-[(4-morpholin-4-yl-phenylamino)-methylene]-1,3-dihydro-indol-2-one] | 6.14 | 35% @ 75 mg/Kg | –
5 | 7.51 | CN(C)c1ccc2c(c1)COC2=C1C(=O)Nc2ccccc21 [Example 18, 3-(5-Dimethylamino-3H-isobenzofuran-1-ylidene)-1,3-dihydro-indol-2-one] | 7.66 | – | –
6 | 6.88 | CN(C)c1ccc2c(c1)COC2=C1C(=O)N(CN2CCCCC2)c2ccccc21 [Example 19, 3-(5-Dimethylamino-3H-isobenzofuran-1-ylidene)-1-piperidin-1-ylmethyl-1,3-dihydro-indol-2-one] | 6.92 | – | –
7 | 7.66 | CN(C)c1ccc2c(c1)COC2=C1C(=O)Nc2ccc(Cl)cc21 [Example 20, 5-Chloro-3-(5-dimethylamino-3H-isobenzofuran-1-ylidene)-1,3-dihydro-indol-2-one] | 7.48 | – | –
